Source: ChEMBL document CHEMBL1151704, “Nicotinic acid receptor agonists” (J Med Chem, 2008)
pEC50, pIC50: −log10 of the molar value.

Tests used:
Rattus norvegicus = organism: Rattus norvegicus; experiment: Reduction of plasma free fatty acid in Sprague-Dawley rat; assay type: functional
[1] = Therapeutic index, ratio of ED50 for plasma free fatty acid in Sprague-Dawley rat to ED50 for vasodilation in mouse; details: read-out: Ratio ED50
[2] = target: Hydroxycarboxylic acid receptor 2 (Homo sapiens, UniProt Q8TDS4); experiment: Activity at GPR109a assessed as inhibition of forskolin-stimulated cAMP production; assay type: functional
[3] = target: Hydroxycarboxylic acid receptor 3 (Homo sapiens, UniProt P49019); experiment: Activity at GPR109b assessed as inhibition of forskolin-stimulated cAMP production; assay type: functional
Sequence of Hydroxycarboxylic acid receptor 3 (P49019 whole entry): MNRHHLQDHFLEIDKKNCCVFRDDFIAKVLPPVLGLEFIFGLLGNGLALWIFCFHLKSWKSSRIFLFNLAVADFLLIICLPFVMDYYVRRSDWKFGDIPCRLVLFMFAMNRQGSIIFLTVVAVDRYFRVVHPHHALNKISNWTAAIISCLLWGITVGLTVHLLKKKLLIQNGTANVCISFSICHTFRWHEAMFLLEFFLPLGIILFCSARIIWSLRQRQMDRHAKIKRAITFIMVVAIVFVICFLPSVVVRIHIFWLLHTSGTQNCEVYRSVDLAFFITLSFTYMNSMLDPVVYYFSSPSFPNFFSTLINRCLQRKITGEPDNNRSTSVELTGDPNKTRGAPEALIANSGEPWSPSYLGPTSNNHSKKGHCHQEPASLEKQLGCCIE

Sequence of Hydroxycarboxylic acid receptor 2 (Q8TDS4 whole entry): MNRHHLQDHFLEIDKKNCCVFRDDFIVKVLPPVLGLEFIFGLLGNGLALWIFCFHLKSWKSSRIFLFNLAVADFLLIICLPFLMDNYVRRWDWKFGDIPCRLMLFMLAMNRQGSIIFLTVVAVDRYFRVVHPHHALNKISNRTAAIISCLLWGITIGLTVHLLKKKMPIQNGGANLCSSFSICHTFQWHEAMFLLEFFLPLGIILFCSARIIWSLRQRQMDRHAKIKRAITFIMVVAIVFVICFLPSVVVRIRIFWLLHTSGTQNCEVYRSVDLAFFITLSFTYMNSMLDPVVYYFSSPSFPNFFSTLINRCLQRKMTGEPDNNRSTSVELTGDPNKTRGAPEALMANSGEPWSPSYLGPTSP

pEC50 [2] | pIC50 [3] | pIC50 [2] | Compound | ED50 (Rattus norvegicus) | selectivity ratio [1]
– | – | – | O=C(CCc1nc(-c2ccc(O)cn2)no1)Nc1ccccc1C(=O)O | 9 mg/kg | > 70
6.40 | – | – | CC(C)n1nnc2cc(C(=O)O)ccc21 | – | –
– | – | – | O=C(CCc1nc(-c2ccc(O)cc2)no1)Nc1ccccc1C(=O)O | 9 mg/kg | > 70
– | 5.52 | 6.30 | CC1(c2ccccc2)OC(C(=O)O)=CC1=O (configuration not stated) [ACIFRAN] | – | –
